In publication PMC8213153 (PLoS ONE, 2021):
In brackets after ≈: the same amount, converted by molar mass. Where two headings read alike, the source gives them in different places.

Key:
Assay type in all cases: cell-based
[1] = Cytotoxicity (MTT) assay of single and dual combinatory drugs; details: human
Procedure: Each tablet containing drugs was triturated and mixed until homogenous. Approximately 50 mg equivalent mass of drugs were weighed and added to dimethyl sulfoxide in order to solubilize the drugs. The suspension was sonicated in a water bath for 15 minutes before being added to Rosewell Park Memorial Institute (RPMI) media, sonicated again and vortexed to mix it until homogenous. The suspension was then filtered through a polycarbonate membrane with a pore size of 0.45 μm and then a pore size of 0.22 μm under aseptic conditions. The filtrate was mixed with 10% foetal bovine serum and penicillin streptomycin before being vortexed to produce a homogenous mixture to be used as a stock solution. The samples were prepared by diluting the stock solution of each drug with RPMI complete media at an appropriate level of dilution to produce a determined concentration. The dual combinatory drugs mixtures were prepared by mixing appropriate amounts of two drug stock solutions in order to produce a final concentration at the required level. The combinatory drugs were evaluated at both constant and non-constant ratios to evaluate their effects on the cytotoxicity, including; antagonistic, synergistic, or additive. A constant ratio of the mixture was achieved by adding drug solutions at the same ratio, thereby increasing each drug concentration, to produce dose escalation. In contrast, at a non-constant ratio, a fixed determined concentration of drug was added to increased doses of other drug solution in order to produce different levels of drug concentration.
The cytotoxic concentration (CC50) of drugs was performed by means of MTT assay at the Stem Cell Research and Development Center, Universitas Airlangga using human umbilical cord mesenchymal stem cells which had been obtained from human placenta tissue as approved by the Ethical Committee of Universitas Airlangga Hospital (Certificate number 101/KEH/2019 dated January 10, 2019). The cells were prepared as the primary cell culture and used for the cytotoxicity assay because of their sensitivity to chemicals. Cells were seeded into 96-well microplates at a concentration of 1x10^3 cells/well in 100 μL Alpha Minimum Essentials Medium (α-MEM, Gibco, USA) supplemented with 10% foetal bovine serum, 1% penicillin-streptomycin and 1% amphotericin-B. The plates were then incubated in a CO2 incubator at 37°C with 5% CO2 for 24 hours, at which point, the supernatant was replaced with α-MEM containing drugs at each concentration and incubated for a further 48 hours. Approximately 25μL of 3-(4,5-Dimethylthiazol-2-yl)-2,5-diphenyl tetrazolium-bromide (MTT) reagent at a concentration of 5mg/mL was subsequently added to each well and incubated for four hours at 37°C with 5% CO2. Purple formazan crystals were formed and observed under an inverted microscope. Dimethyl sulfoxide was added to each well with the complete solubilisation of formazan crystals subsequently being observed. The greater the number of formazan crystals formed, the lower the toxicity of the samples which were read for optical density of formazan using a multi reader at a measurement wavelength of 595 nm (Promega Glomax, USA). The CC50 value was analyzed by CompuSyn software (the ComboSyn Inc., accessed from www.combosyn.com).
In this study, the cytotoxicity assay was evaluated for single and dual combinatory drugs during a period of 48 hours of drug incubation. This assay was intended to evaluate the toxicity of dual combinatory drugs on normal cells. The combination ratios were calculated taking into consideration the usual therapeutic doses and plasma peak concentrations of the drugs. To determine this cytotoxicity, the drugs were mixed at both constant and non-constant ratios.

SARS-CoV-2 virus = assay: microbe, parasite or virus in culture; details: for IC50: Severe acute respiratory syndrome coronavirus 2, Vero, MoI 0.04
IL-10 = IL-10 level of virus-infected Vero cells (ELISA)
Procedure: (§1) To enable measurement of IL-6, IL-10 and TNF-α levels, the culture medium of the treated cells was collected in sterile micro-tubes and centrifuged at 3,500 rpm for 20 minutes. The supernatants were carefully collected and diluted with aquadest at a 1:5 volume ratio and vortexed until homogenous. The samples were deposited onto a well-plate, added to ELISA reagents (Bioassay Technology Laboratory, Shanghai, China), and incubated at 37°C for 60 minutes. Reagent substrate solution was then added to the well and incubated for ten minutes at 37°C. The samples were measured for antigen concentration using the optical density (OD) plotted into the standard curves of IL-6, IL-10, and TNF-α.

IL-6 = IL-6 level of virus-infected Vero cells (ELISA)
Procedure: as §1

TNF-α = TNF-α level of virus-infected Vero cells (ELISA)
Procedure: as §1

[2] = FAVIPIRAVIR-AZITHROMYCIN series, read-out: Cell Viability (%)
[3] = HYDROXYCHLOROQUINE-AZITHROMYCIN series, read-out: Cell Viability (%)
[4] = LOPIRITO-AZITHROMYCIN series, read-out: Viability Cell (%)

Molecule CC[C@H]1OC(=O)[C@H](C)[C@@H](O[C@H]2C[C@@](C)(OC)[C@@H](O)[C@H](C)O2)[C@H](C)[C@@H](O[C@@H]2O[C@H](C)C[C@H](N(C)C)[C@H]2O)[C@](C)(O)C[C@@H](C)CN(C)[C@H](C)[C@@H](O)[C@]1(C)O [AZI, Azithromycin] has a viability at 48 h, 0.2 μg/mL [1, 2] of 115%, a viability at 48 h, 2 μg/mL [1, 2] of 107% and a viability at 48 h, 10 μg/mL [1, 2] of 110%. For the same molecule, the viability at 48 h, 100 μg/mL [1, 2] was 139%, the viability at 48 h, 400 μg/mL [1, 2] was 90.9% and the viability at 48 h, 2 μg/mL [1, 3] was 94.2%. The viability at 48 h, 10 μg/mL [1, 3] was 104%, the viability at 48 h, 100 μg/mL [1, 3] was 110% and the viability at 48 h, 400 μg/mL [1, 3] was 68.9%. The viability at 48 h, 0.2 μg/mL [1, 4] was 84.7%, the viability at 48 h, 2 μg/mL [1, 4] was 81.2% and the viability at 48 h, 10 μg/mL [1, 4] was 84.6%. The viability at 48 h, 100 μg/mL [1, 4] was 89.5%, the viability at 48 h, 400 μg/mL [1, 4] was 81.2% and the “Virus Titer” value (SARS-CoV-2 virus; 15 μg/mL, 24-h) was 38.18 viral protein fg/mL. For the same molecule, the “Virus Titer” value (SARS-CoV-2 virus; 62.5 μg/mL, 48-h) was 38.78 viral protein fg/mL, the IC50 (SARS-CoV-2 virus; 24h) was 51.9 µg/mL (≈ 69.3 µM) and the IC50 (SARS-CoV-2 virus; 48h) was 19.6 µg/mL (≈ 26.2 µM). The IC50 (SARS-CoV-2 virus; 72h) was < 10 µg/mL, the IL-10 (IL-10; 15 μg/mL, 24-h) was 32.78 ± 1.18 pg/mL and the IL-10 (IL-10; 15 μg/mL, 48-h) was 152.34 ± 1.72 pg/mL. For the same molecule, the IL-10 (IL-10; 15 μg/mL, 72-h) was 609.92 ± 1.48 pg/mL, the IL-10 (IL-10; 15 μg/mL, 24h) was “↗↗ (15 μg/mL; 24h)” and the IL-10 (IL-10; 62.5 μg/mL, 24-h) was 53.50 ± 1.85 pg/mL. For the same molecule, the IL-10 (IL-10; 62.5 μg/mL, 48-h) was 91.92 ± 1.45 pg/mL, the “IL-10 levels (in words)” value (IL-10; Table 5) was “increased” and the IL-6 (IL-6; 15 μg/mL, 24-h) was 14.55 ± 2.22 ng/L. It also gave an IL-6 (IL-6; 15 μg/mL, 72-h) of 565.92 ± 0.00 ng/L, an IL-6 (IL-6; 62.5 μg/mL, 24-h) of 15.92 ± 0.57 ng/L and an IL-6 (IL-6; 62.5 μg/mL, 48-h) of 33.47 ± 3.98 ng/L. The IL-6 (IL-6; 62.5 μg/mL, 72-h) was 529.11 ± 0.95 ng/L, the “IL-6 (in words)” value (IL-6; Table 5) was “reduced” and the TNF-α (TNF-α; 15 μg/mL, 24-h) was 6.994 ± 1.32 pg/mL. The TNF-α (TNF-α; 15 μg/mL, 48-h) was 478 ± 1.50 pg/mL, the TNF-α (TNF-α; 15 μg/mL, 72-h) was 777.34 ± 1.67 pg/mL and the TNF-α (TNF-α; 62.5 μg/mL, 24-h) was 86.00 ± 2.84 pg/mL. The TNF-α (TNF-α; 62.5 μg/mL, 48-h) was 381.30 ± 1.28 pg/mL, the TNF-α (TNF-α; 62.5 μg/mL, 72-h) was 641.33 ± 0.00 pg/mL and the TNF-α (TNF-α; 24, 48, and 72 hours, cell without concentration) was “No effects”. For the same molecule, the “TNF-α levels (in words)” value (TNF-α; Table 5) was “no effects”.
